Patent publication US9303012B2, “Pyridine-2-amides useful as CB2 agonists” (Hoffmann-La Roche Inc., priority 2012, dated 2016)

Key:
[1] = molecular target: human CB2 receptors (Homo sapiens (Human), UniProt P34972); assay: functional cAMP assay, CHO cells expressing human CB2 receptors; assay type: cell-based
Protocol: (§1) CHO cells expressing human CB1 or CB2 receptors are seeded 17-24 hours prior to the experiment 50.000 cells per well in a black 96 well plate with flat clear bottom (Corning Costar #3904) in DMEM (Invitrogen No. 31331), 1×HT supplement, with 10% fetal calf serum and incubated at 5% CO2 and 37° C. in a humidified incubator. The growth medium was exchanged with Krebs Ringer Bicarbonate buffer with 1 mM IBMX and incubated at 30° C. for 30 min. Compounds were added to a final assay volume of 100 μl and incubated for 30 min at 30° C. Using the cAMP-Nano-TRF detection kit the assay (Roche Diagnostics) was stopped by the addition of 50 μl lysis reagent (Tris, NaCl, 1.5% Triton X100, 2.5% NP40, 10% NaN3) and 50 μl detection solutions (20 μM mAb Alexa700-cAMP 1:1, and 48 μM Ruthenium-2-AHA-cAMP) and shaken for 2 h at room temperature. The time-resolved energy transfer is measured by a TRF reader (Evotec Technologies GmbH), equipped with a ND:YAG laser as excitation source. The plate is measured twice with the excitation at 355 nm and at the emission with a delay of 100 ns and a gate of 100 ns, total exposure time 10 s at 730 (bandwidth 30 nm) or 645 nm (bandwidth 75 nm), respectively. The FRET signal is calculated as follows: FRET=T730-Alexa730-P(T645-B645) with P=Ru730-B730/Ru645-B645, where T730 is the test well measured at 730 nM, T645 is the test well measured at 645 nm, B730 and B645 are the buffer controls at 730 nm and 645 nm, respectively. cAMP content is determined from the function of a standard curve spanning from 10 μM to 0.13 nM cAMP.
(§2) EC50 values were determined using Activity Base analysis (ID Business Solution, Limited). The EC50 values for a wide range of cannabinoid agonists generated from this assay were in agreement with the values published in the scientific literature.

[2] = molecular target: human CB1 receptors (Homo sapiens (Human), UniProt P21554); assay: functional cAMP assay, CHO cells expressing human CB1 receptors; assay type: cell-based
Protocol: as §1, §2

Sequence of human CB1 receptors (P21554 whole entry): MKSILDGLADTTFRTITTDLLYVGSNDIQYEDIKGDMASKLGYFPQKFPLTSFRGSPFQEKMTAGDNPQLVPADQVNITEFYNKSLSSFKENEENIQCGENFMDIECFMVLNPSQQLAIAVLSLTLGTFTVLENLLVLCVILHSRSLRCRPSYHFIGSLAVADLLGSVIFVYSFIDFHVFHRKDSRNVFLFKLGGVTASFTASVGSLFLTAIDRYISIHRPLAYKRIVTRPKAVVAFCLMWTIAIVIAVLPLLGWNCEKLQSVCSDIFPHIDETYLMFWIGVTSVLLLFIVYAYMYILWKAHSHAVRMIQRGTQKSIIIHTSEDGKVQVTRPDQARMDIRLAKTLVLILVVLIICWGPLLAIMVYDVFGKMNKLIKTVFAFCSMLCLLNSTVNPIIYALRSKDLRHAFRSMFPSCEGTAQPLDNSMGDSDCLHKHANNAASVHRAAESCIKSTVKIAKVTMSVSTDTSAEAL
Sequence of human CB2 receptors (P34972 whole entry): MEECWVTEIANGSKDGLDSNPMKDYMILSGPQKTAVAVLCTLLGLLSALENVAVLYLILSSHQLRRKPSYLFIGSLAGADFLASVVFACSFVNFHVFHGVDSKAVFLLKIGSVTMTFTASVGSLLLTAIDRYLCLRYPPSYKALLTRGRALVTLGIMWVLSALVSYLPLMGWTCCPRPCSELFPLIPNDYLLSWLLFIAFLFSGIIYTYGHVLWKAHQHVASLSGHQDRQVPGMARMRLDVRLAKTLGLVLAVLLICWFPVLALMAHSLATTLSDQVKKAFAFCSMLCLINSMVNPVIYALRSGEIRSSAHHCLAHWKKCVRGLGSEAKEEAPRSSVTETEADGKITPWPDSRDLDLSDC

Compound | EC50 [1] [nM] | EC50 [2] [nM]
NC(=O)[C@@H]1C[S@+]([O-])CN1C(=O)c1ccc(C2CC2)c(OCC2CC2)n1 (single isomer, unassigned) [Example 116, (1S,4R)-3-(5-Cyclopropyl-6-cyclopropylmethoxy-pyridine-2-carbonyl)-1-oxo-1λ^4-thiazolidine-4-carboxylic acid amide or (1R,4S)-3-(5-cyclopropyl-6-cyclopropylmethoxy-pyridine-2-carbonyl)-1-oxo-1λ^4-thiazolidine-4-carboxylic acid amide] | 672 | > 10000
CN(C(=O)c1ccc(N2CC(F)(F)C2)c(OCC2CC2)n1)C(C)(C)C [Example 1, 6-Cyclopropylmethoxy-5-(3,3-difluoro-azetidin-1-yl)-pyridine-2-carboxylic acid tert-butyl-methyl-amide] | 4.6 | > 10000
CN(C)C(=O)c1ccc(N2CC(F)(F)C2)c(OCC2CC2)n1 [Example 2, 6-Cyclopropylmethoxy-5-(3,3-difluoro-azetidin-1-yl)-pyridine-2-carboxylic acid dimethylamide] | 297 | > 10000
CN(C(=O)c1ccc(C2CC2)c(OCC2CC2)n1)C(C)(C)C [Example 3, 5-Cyclopropyl-6-cyclopropylmethoxy-pyridine-2-carboxylic acid tert-butyl-methyl-amide] | 7.2 | > 10000
CN(C(=O)c1ccc(C2CC2)c(OCC2CCCO2)n1)C(C)(C)C (stereo not drawn) [Example 4, 5-Cyclopropyl-6-(tetrahydro-furan-2-ylmethoxy)-pyridine-2-carboxylic acid tert-butyl-methyl-amide] | 8.5 | > 10000
CN(C(=O)c1ccc(C2CC2)c(Cc2ccc(F)cc2)n1)C(C)(C)C [Example 5, 5-Cyclopropyl-6-(4-fluoro-benzyl)-pyridine-2-carboxylic acid tert-butyl-methyl-amide] | 0.8 | 268
CC(C)CS(=O)(=O)c1nc(C(=O)N(C)C(C)(C)C)ccc1C1CC1 [Example 6, 5-Cyclopropyl-6-(2-methyl-propane-1-sulfonyl)-pyridine-2-carboxylic acid tert-butyl-methyl-amide] | 106 | > 10000
CCN(C(=O)c1ccc(N2CC(F)(F)C2)c(OCC2CC2)n1)C(C)(C)C [Example 7, 6-Cyclopropylmethoxy-5-(3,3-difluoro-azetidin-1-yl)-pyridine-2-carboxylic acid tert-butyl-ethyl-amide] | 0.6 | 292
COCC(C)(C)N(C)C(=O)c1ccc(N2CC(F)(F)C2)c(OCC2CC2)n1 [Example 9, 6-Cyclopropylmethoxy-5-(3,3-difluoro-azetidin-1-yl)-pyridine-2-carboxylic acid (2-methoxy-1,1-dimethyl-ethyl)-methyl-amide] | 3.8 | > 10000
O=C(c1ccc(N2CC(F)(F)C2)c(OCC2CC2)n1)N1CCC12COC2 [Example 10, [6-Cyclopropylmethoxy-5-(3,3-difluoro-azetidin-1-yl)-pyridin-2-yl]-(6-oxa-1-aza-spiro[3.3]hept-1-yl)-methanone] | 662 | > 10000
O=C(c1ccc(N2CC(F)(F)C2)c(OCC2CC2)n1)N1CC2(COC2)C1 [Example 11, [6-Cyclopropylmethoxy-5-(3,3-difluoro-azetidin-1-yl)-pyridin-2-yl]-(2-oxa-6-aza-spiro[3.3]hept-6-yl)-methanone] | 364 | > 10000
CN(C(=O)c1ccc(N2CC(F)(F)C2)c(OCC2CC2)n1)C(C)(C)COC(=O)c1ccc(N2CC(F)(F)C2)c(OCC2CC2)n1 [Example 12, 6-Cyclopropylmethoxy-5-(3,3-difluoro-azetidin-1-yl)-pyridine-2-carboxylic acid 2-{[6-cyclopropylmethoxy-5-(3,3-difluoro-azetidin-1-yl)-pyridine-2-carbonyl]-methyl-amino}-2-methyl-propyl ester] | 134 | > 10000
CC(Oc1nc(C(=O)N(C)C(C)(C)C)ccc1C1CC1)C(F)(F)F (stereo not drawn) [Example 13, 5-Cyclopropyl-6-(2,2,2-trifluoro-1-methyl-ethoxy)-pyridine-2-carboxylic acid tert-butyl-methyl-amide] | 119 | > 10000
CC1(C)COCN1C(=O)c1ccc(N2CC(F)(F)C2)c(OCC2CC2)n1 [Example 14, [6-Cyclopropylmethoxy-5-(3,3-difluoro-azetidin-1-yl)-pyridin-2-yl]-(4,4-dimethyl-oxazolidin-3-yl)-methanone] | 7.3 | > 10000
CN(C(=O)c1ccc(C(F)(F)F)c(OCC2CCCO2)n1)C(C)(C)C (stereo not drawn) [Example 15, 6-(Tetrahydro-furan-2-ylmethoxy)-5-trifluoromethyl-pyridine-2-carboxylic acid tert-butyl-methyl-amide] | 249 | > 10000
CN(C(=O)c1ccc(N2CC(F)(F)C2)c(OCC2CC2)n1)C1(C(F)(F)F)CC1 [Example 16, 6-Cyclopropylmethoxy-5-(3,3-difluoro-azetidin-1-yl)-pyridine-2-carboxylic acid methyl-(1-trifluoromethyl-cyclopropyl)-amide] | 8 | > 10000
CC1(C)COCCN1C(=O)c1ccc(N2CC(F)(F)C2)c(OCC2CC2)n1 [Example 17, [6-Cyclopropylmethoxy-5-(3,3-difluoro-azetidin-1-yl)-pyridin-2-yl]-(3,3-dimethyl-morpholin-4-yl)-methanone] | 5.2 | > 10000
CC1(C)CCCN1C(=O)c1ccc(N2CC(F)(F)C2)c(OCC2CC2)n1 [Example 18, [6-Cyclopropylmethoxy-5-(3,3-difluoro-azetidin-1-yl)-pyridin-2-yl]-(2,2-dimethyl-pyrrolidin-1-yl)-methanone] | 0.6 | > 10000
COCCN(C(=O)c1ccc(N2CC(F)(F)C2)c(OCC2CC2)n1)C(C)(C)CO [Example 19, 6-Cyclopropylmethoxy-5-(3,3-difluoro-azetidin-1-yl)-pyridine-2-carboxylic acid (2-hydroxy-1,1-dimethyl-ethyl)-(2-methoxy-ethyl)-amide] | 856 | > 10000
COCCN(C(=O)c1ccc(N2CC(F)(F)C2)c(OCC2CC2)n1)C(C)(C)C [Example 20, 6-Cyclopropylmethoxy-5-(3,3-difluoro-azetidin-1-yl)-pyridine-2-carboxylic acid tert-butyl-(2-methoxy-ethyl)-amide] | 5.3 | > 10000
CCN(C(=O)c1ccc(N2CC(F)(F)C2)c(OCC2CC2)n1)C1(C(F)(F)F)CC1 [Example 21, 6-Cyclopropylmethoxy-5-(3,3-difluoro-azetidin-1-yl)-pyridine-2-carboxylic acid ethyl-(1-trifluoromethyl-cyclopropyl)-amide] | 2.8 | > 10000
O=C(c1ccc(N2CC(F)(F)C2)c(OCC2CC2)n1)N(Cc1ccccc1)C1(C(F)(F)F)CC1 [Example 22, 6-Cyclopropylmethoxy-5-(3,3-difluoro-azetidin-1-yl)-pyridine-2-carboxylic acid benzyl-(1-trifluoromethyl-cyclopropyl)-amide] | 25 | > 10000
CCOC(=O)CN(C(=O)c1ccc(N2CC(F)(F)C2)c(OCC2CC2)n1)C(C)(C)C [Example 23, {tert-Butyl-[6-cyclopropylmethoxy-5-(3,3-difluoro-azetidin-1-yl)-pyridine-2-carbonyl]-amino}-acetic acid ethyl ester] | 5.8 | > 10000
CC(C)(C)N(CC(=O)O)C(=O)c1ccc(N2CC(F)(F)C2)c(OCC2CC2)n1 [Example 24, {tert-Butyl-[6-cyclopropylmethoxy-5-(3,3-difluoro-azetidin-1-yl)-pyridine-2-carbonyl]-amino}-acetic acid] | 340 | > 10000
CC(C)(C)N(Cc1ccccc1)C(=O)c1ccc(N2CC(F)(F)C2)c(OCC2CC2)n1 [Example 25, 6-Cyclopropylmethoxy-5-(3,3-difluoro-azetidin-1-yl)-pyridine-2-carboxylic acid benzyl-tert-butyl-amide] | 37 | > 10000
CNC(=O)CN(C(=O)c1ccc(N2CC(F)(F)C2)c(OCC2CC2)n1)C(C)(C)C [Example 26, 6-Cyclopropylmethoxy-5-(3,3-difluoro-azetidin-1-yl)-pyridine-2-carboxylic acid tert-butyl-methylcarbamoylmethyl-amide] | 306 | > 10000
CN(C)C(=O)CN(C(=O)c1ccc(N2CC(F)(F)C2)c(OCC2CC2)n1)C(C)(C)C [Example 27, 6-Cyclopropylmethoxy-5-(3,3-difluoro-azetidin-1-yl)-pyridine-2-carboxylic acid tert-butyl-dimethylcarbamoylmethyl-amide] | 774 | > 10000
